Results: ChEMBL document CHEMBL1201862, “PubChem BioAssay data set” (2004)
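Dose response: 5 concentrations. Exposure: 48 h. Format: 96-well plates. Endpoint: linear interpolation; highest concentration if not reached. GI50 marks 50% less growth.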 Activity calls are given as the source filed them. No stated cut-off is given here; in the data, active = GI50 up to about 1.1 µM and inactive = higher.

Legend:
Test in all cases: NCI tumour cell line growth inhibition, 48 h
[1] = tested on: LOX IMVI
[2] = tested on: NCI-H226
[3] = tested on: SW-620
[4] = tested on: SF-539
[5] = tested on: KM12
[6] = tested on: U-251
[7] = tested on: OVCAR-4
[8] = tested on: UACC-62
[9] = tested on: SK-MEL-5
[10] = tested on: HT-29
[11] = tested on: SNB-75
[12] = tested on: RXF 393
[13] = tested on: COLO 205
[14] = tested on: SF-295
[15] = tested on: HCC 2998
[16] = tested on: OVCAR-5
[17] = tested on: TK-10

Row | SMILES | GI50 [1] | GI50 [2] | GI50 [3] | GI50 [4] | GI50 [5] | GI50 [6] | GI50 [7] | GI50 [8] | GI50 [9] | GI50 [10] | GI50 [11] | GI50 [12] | GI50 [13] | GI50 [14] | GI50 [15] | GI50 [16] | GI50 [17]
1 | O=c1[nH]c(=O)n(C2OC(COP(=O)(O)OP(=O)(O)OC3OC(CO)C(O)C(O)C3O)C(O)C2O)cc1F (configuration not stated) | 0.0314 µM (active) | 0.148 µM (active) | 0.0504 µM (active) | 0.0552 µM (active) | 0.0317 µM (active) | 0.0577 µM (active) | 1.26 µM (inactive) | 0.307 µM (active) | 0.407 µM (active) | 0.0582 µM (active) | 1.64 µM (inactive) | 0.0522 µM (active) | 0.0984 µM (active) | 0.127 µM (active) | 0.116 µM (active) | 0.908 µM (active) | 1.67 µM (inactive)
2 | O=C1N(c2ccc(Cl)cc2)C(=O)C2(SC=NN2Cc2ccccc2)N1c1ccc(Cl)cc1 (configuration not stated) | > 100 µM (inactive) | > 100 µM (inactive) | > 100 µM (inactive) | 34.3 µM (inactive) | > 100 µM (inactive) | > 100 µM (inactive) | > 100 µM (inactive) | > 100 µM (inactive) | > 100 µM (inactive) | > 100 µM (inactive) | 64.7 µM (inactive) | 37.9 µM (inactive) | > 10 µM (inactive) | > 10 µM (inactive) | > 100 µM (inactive) |  | > 100 µM (inactive)
3 | CC1=C2C(=CC(C)(C)C2O)C(=O)C(C)(O)C12CC2 (configuration not stated) | 0.00478 µM (active) | 0.033 µM (active) | 0.00305 µM (active) | 0.0209 µM (active) | 0.0158 µM (active) | 0.0059 µM (active) | 0.00513 µM (active) | 0.0116 µM (active) | 0.00567 µM (active) | 0.0028 µM (active) | 0.0123 µM (active) | 0.00752 µM (active) | 0.0138 µM (active) | 0.00724 µM (active) | 0.00541 µM (active) | 0.0128 µM (active) | 0.0216 µM (active)
4 | O=C1C(=O)N(c2nccs2)C(=O)C(=O)C1c1nc2ccccc2s1 | > 100 µM (inactive) | > 100 µM (inactive) | > 100 µM (inactive) | > 100 µM (inactive) | > 100 µM (inactive) | 83 µM (inactive) | > 100 µM (inactive) | > 100 µM (inactive) |  | > 100 µM (inactive) | > 100 µM (inactive) | > 100 µM (inactive) | > 100 µM (inactive) | > 100 µM (inactive) | > 100 µM (inactive) | > 100 µM (inactive) | > 100 µM (inactive)
5 | CN(C)C(=S)Nc1nnc(NC23CC4CC(CC(C4)C2)C3)s1.[O-][Cl+3]([O-])([O-])O | 17.5 µM (inactive) | 19.4 µM (inactive) | 16.7 µM (inactive) | 10 µM (inactive) | 18.7 µM (inactive) | 12.2 µM (inactive) | 16.1 µM (inactive) | 16.5 µM (inactive) | 0.1 µM (active) | 5.81 µM (inactive) | 0.1 µM (active) | 17.1 µM (inactive) | 19.8 µM (inactive) | 13.8 µM (inactive) | 18.9 µM (inactive) | 10 µM (inactive) | 40.5 µM (inactive)
6 | C/C(=N\NC(=S)NC(CCC(=O)O)C(=O)O)c1ccccn1 (configuration not stated) | > 100 µM (inactive) | > 100 µM (inactive) | > 100 µM (inactive) | > 100 µM (inactive) | > 100 µM (inactive) | > 100 µM (inactive) | > 100 µM (inactive) | > 100 µM (inactive) | > 100 µM (inactive) | > 100 µM (inactive) | > 100 µM (inactive) | > 100 µM (inactive) | > 100 µM (inactive) | > 100 µM (inactive) | > 100 µM (inactive) | > 100 µM (inactive) | > 100 µM (inactive)
7 | O=C(CSc1nnc(-c2ccc(/N=C\c3ccc(Cl)cc3)cc2)o1)Nc1ccc([N+](=O)[O-])cc1 | 10.6 µM (inactive) | 21.9 µM (inactive) | 17.1 µM (inactive) |  | > 10 µM (inactive) | 19.3 µM (inactive) | 26.2 µM (inactive) | 18.9 µM (inactive) | 18.4 µM (inactive) | 19.5 µM (inactive) | 25.4 µM (inactive) | 19.6 µM (inactive) | 35.2 µM (inactive) | 30.2 µM (inactive) |  |  | 51.4 µM (inactive)
8 | CSc1nc2c(nc(N)n2C2OC(CO)C(O)C(O)C2O)c(=O)[nH]1 (configuration not stated) | > 100 µM (inactive) | > 100 µM (inactive) | > 100 µM (inactive) | > 100 µM (inactive) | > 100 µM (inactive) | > 100 µM (inactive) | > 100 µM (inactive) | > 100 µM (inactive) | > 100 µM (inactive) | > 100 µM (inactive) | > 100 µM (inactive) | > 100 µM (inactive) | > 100 µM (inactive) | > 100 µM (inactive) | > 100 µM (inactive) |  | > 100 µM (inactive)
9 | CC(C)C1=CC23CCC4C(C)(C(=O)O)CCCC4(C)C2CC1C1C(=O)N(c2ccccc2)C(=O)C13 (configuration not stated) | 54.1 µM (inactive) | 15.5 µM (inactive) | 54 µM (inactive) | 51.3 µM (inactive) | 27.9 µM (inactive) | 36.6 µM (inactive) | > 100 µM (inactive) | 38.6 µM (inactive) | 44.2 µM (inactive) | 38.6 µM (inactive) | 53.2 µM (inactive) | 27.4 µM (inactive) | 24.3 µM (inactive) | 51.2 µM (inactive) |  | > 100 µM (inactive) | 43.5 µM (inactive)
10 | Cc1cc(Cl)ccc1NC(=O)C(=O)C(C(=O)c1ccc2ccccc2c1)C1OC(=O)c2ccccc21 (configuration not stated) | 13.2 µM (inactive) | 2.3 µM (inactive) | 7.87 µM (inactive) | 4.48 µM (inactive) | 17 µM (inactive) | 4.95 µM (inactive) | 7.6 µM (inactive) | 8.67 µM (inactive) | 12.7 µM (inactive) | 28.4 µM (inactive) | 10.1 µM (inactive) | 1.83 µM (inactive) | 13.2 µM (inactive) |  | 10.2 µM (inactive) | 18.6 µM (inactive) | > 10 µM (inactive)
11 | COC1=CC(=O)C(Br)=CC1=O | 18.2 µM (inactive) |  | 23.2 µM (inactive) |  |  |  | 17.9 µM (inactive) | 17.6 µM (inactive) | 17.9 µM (inactive) | 19.2 µM (inactive) | 15.2 µM (inactive) | 18.2 µM (inactive) | 16.7 µM (inactive) |  | 36.3 µM (inactive) | > 10 µM (inactive) | 19.9 µM (inactive)
12 | CCc1c(C#N)c(=O)[nH]c(=O)n1CCN1CCN(C(=O)NCCCCCCNC(=O)N2CCN(CCn3c(CC)c(C#N)c(=O)[nH]c3=O)CC2)CC1 | > 100 µM (inactive) |  | > 100 µM (inactive) | > 100 µM (inactive) |  | > 100 µM (inactive) | > 100 µM (inactive) | > 100 µM (inactive) | > 100 µM (inactive) | > 100 µM (inactive) | > 10 µM (inactive) |  | > 100 µM (inactive) | > 100 µM (inactive) | > 100 µM (inactive) |  | > 100 µM (inactive)
13 | COC(=O)/C(=N\NC(=O)c1ccccc1O)C(C#N)c1ccc(Cl)cc1 (configuration not stated) |  |  | 44.5 µM (inactive) | 9.29 µM (inactive) | 43.6 µM (inactive) | 44.7 µM (inactive) | 26.7 µM (inactive) | 3.69 µM (inactive) | 16.7 µM (inactive) | 74.1 µM (inactive) |  | 2.04 µM (inactive) | > 100 µM (inactive) | 30.5 µM (inactive) | 30.3 µM (inactive) | 34.9 µM (inactive) | > 100 µM (inactive)
14 | CCC12C[N+]3([O-])CCc4c([nH]c5ccccc45)C(C(=O)OC)(c4cc5c(cc4OC)N(C)C4C(O)(C(=O)OC)C(OC(C)=O)C6(CC)C=CCN7CCC54C76)CC(C3)C1O2 (configuration not stated) | 1.09 µM (active) |  | 0.598 µM (active) | 0.28 µM (active) | 0.337 µM (active) | 1.04 µM (active) | 13.3 µM (inactive) | 0.323 µM (active) | 0.288 µM (active) | 0.342 µM (active) | 0.242 µM (active) | 0.693 µM (active) | 0.423 µM (active) | 0.291 µM (active) | 2.55 µM (inactive) | 3.94 µM (inactive) | 5.62 µM (inactive)
15 | Nc1c(C(=O)Nc2ccccc2O)[n+]([O-])c2ccccc2[n+]1[O-] |  | > 100 µM (inactive) | 21 µM (inactive) | 32.3 µM (inactive) | 79.3 µM (inactive) | 71.8 µM (inactive) | > 100 µM (inactive) |  | 14.7 µM (inactive) | > 100 µM (inactive) | 47.9 µM (inactive) |  | 42.9 µM (inactive) | 58.9 µM (inactive) |  | > 100 µM (inactive) | 
16 | O=C(CSc1nnc(-c2ccc(/N=C\c3ccc(Cl)cc3)cc2)o1)Nc1cccc([N+](=O)[O-])c1 | > 100 µM (inactive) | > 100 µM (inactive) | > 100 µM (inactive) |  | > 100 µM (inactive) | > 100 µM (inactive) | > 100 µM (inactive) | > 100 µM (inactive) | > 100 µM (inactive) | > 100 µM (inactive) | > 100 µM (inactive) | > 100 µM (inactive) | > 100 µM (inactive) | > 100 µM (inactive) |  |  | > 100 µM (inactive)
17 | CC1(Cc2ccccc2)NC(=S)NC1=O (configuration not stated) | > 100 µM (inactive) | > 100 µM (inactive) | > 100 µM (inactive) | > 100 µM (inactive) | > 100 µM (inactive) | > 100 µM (inactive) |  |  |  | > 100 µM (inactive) | > 100 µM (inactive) | > 100 µM (inactive) | > 100 µM (inactive) | > 100 µM (inactive) | > 100 µM (inactive) | > 100 µM (inactive) | > 100 µM (inactive)
18 | O=C(c1ccccc1)C(c1ccccc1)C1(O)C(=O)Nc2ccc(Br)cc21 (configuration not stated) |  | 40.5 µM (inactive) | 72.1 µM (inactive) | 44.9 µM (inactive) | 95.3 µM (inactive) | 65 µM (inactive) | 32.8 µM (inactive) | 20.1 µM (inactive) |  | 52 µM (inactive) | 40.1 µM (inactive) | > 100 µM (inactive) | > 100 µM (inactive) | > 100 µM (inactive) | > 100 µM (inactive) | > 100 µM (inactive) | > 100 µM (inactive)
